According to patent publication US11400137B2, “Rectal insulin for treatment of inflammatory bowel diseases” (University of Copenhagen, priority 2016, dated 2022):
Entries after “also recorded” stand apart in the source; their conditions may differ. Where two headings read alike, the source gives them in different places.

Key:
[1] = Procedure: C57BL6 mice were treated with 3% DSS in their drinking water. At the peak of inflammation, the mice were treated with rectal insulin and the blood glucose concentration measured at 0, 15, 30, 60, 90, 120 and 240 minutes. Anaesthesia was induced after the first measurement was taken at time point zero. Anaesthesia was complete at time point 15 minutes and rectal insulin instillation or PBS control instillation also begun at time point 15 minutes.
[2] = tested on: mice with DSS induced colitis (AOM+DSS); test: AOM+DSS + rectal insulin dose-response experiment (3% DSS); assay type: in vivo, mouse
Procedure: (§1) The insulin treatment regime was as follows: Each day during DSS treatment and the following first 4 days during remission (no DSS treatment) the mice were anaesthetized with isoflurane and 600 μl PBS or PBS+0.06 units human insulin was injected intra rectally. For the injection, a syringe fitted with a flexible silicone feeding needle (for rodents) was used. The mice were placed on their back with the lower end elevated for 10 minutes while still in isoflurane anaesthesia. After recovery from anaesthesia the mice were returned to their cages. The mice were weighed daily and signs of rectal bleeding scored.
In this experiment 3% DSS was used as opposed to 2% DSS in the previous experiment (FIG. 3). During induction of inflammation there is a significant (FIG. 6, t-test, p<0.05) effect of the administration of 6 u/kg insulin whereas there is no effect of only 2 u/kg administration. Specifically the weight loss (weight at the end of DSS treatment−the weight at the beginning of the DSS treatment) is 16% less in the 6 u/kg insulin group compared to the PBS group (4.3 g in the PBS group versus 3.6 g in the 6 u/kg insulin group; see FIG. 5.

insulin receptor mRNA = test: Colonic crypts cultured as organoids with and without insulin; assay type: cell-based; conditions: insulin added to organoid medium vs none (FIG. 8)
Procedure: To investigate the effect of insulin on isolated colonic epithelial cells, colonic crypts were cultured as organoids with and without the addition of insulin to the medium. […] Several mechanisms are possible. First it is possible that insulin induces differentiation of the epithelial cells and that this process increases […]. Alternatively the insulin receptor may directly stimulate its own mRNA expression by yet undescribed mechanisms. The finding is important because the positive feedback loop is expected to prolong the duration of the insulin effect on the colonic mucosa.

Car3 mRNA = Car3 mRNA expression in colons during AOM+DSS induced intestinal inflammation; assay type: in vivo, mouse
Text: On the contrary, in the INSR KO mice with inactivated insulin receptor in the intestinal epithelial cells the expression of Car3 was not increased by inflammation. Therefore it was investigated whether Car3 is a target for intestinal insulin signalling. The methodology described in Example 2 was followed.

COX2 mRNA = COX2 mRNA expression in colons of mice with AOM+DSS induced inflammation; assay type: in vivo, mouse
Text: Cyclooxygenase 2 (COX2/PTGS2) catalyzes the first step in the synthesis of the inflammatory mediators, the prostaglandins, from arachidonic acid. The expression of COX2 is increased in the colonic epithelial cells from patients with active colonic CD and UC and is therefore a biomarker for colonic inflammation in IBD.

colonic epithelial cells = tested on: colonic epithelial cells
Text: Sections of mouse colons from INSR KO mice and INSR Flox mice were stained with an antibody against the proliferation marker Ki67. Thereafter, sections of inflamed (DSS induced) colons obtained from C57BL6 mice treated with either PBS, 2 u or 6 units/kg insulin were also stained with an antibody directed against the Ki67 proliferation marker and the number of KI67 positive cells per crypt counted.

[3] = tested on: mice with DSS induced colitis (AOM+DSS); test: AOM+DSS colitis/carcinogenesis model, rectal insulin intervention study (2% DSS); assay type: in vivo, mouse
Text: In the azoxymethane and dextran sulphate sodium (AOM/DSS) carcinogenesis/colitis model, colitis is induced by DSS which promotes AOM induced tumours. This AOM/DSS model was used on mice having intestinal specific inactivation of the insulin receptor. These mice were obtained by crossing mice (B6.129S4(FVB)-Insrtm1Khn/J) with loxP sites flanking exon 4 in the insulin receptor gene with mice (B6.Cg-Tg(Vil-cre)997Gum/J) expressing the cre-recombinase under the villin promoter (both mice were obtained commercially from the Jackson Laboratory).
The discovery that inactivated insulin signalling in the intestine augments inflammation and stimulates development of inflammation induced tumours, prompted us to the invention that insulin might be used to treat colitis. This was investigated in an intervention study. Thus, wild type mice were set up in the AOM+DSS regime and divided into two groups. One group of mice was treated with rectal administration of insulin while the control group was treated with vehicle (phosphate buffered saline; PBS).
as §1

[4] = 6 u/kg insulin, p<0.05 vs PBS, Fischer's exact test

Substance: insulin
- blood glucose concentration vs PBS control ([1]; 3% DSS, peak of inflammation, 0-240 minutes, rectal insulin): No significant difference
- systemic uptake of insulin following rectal instillation ([1]; inferred from blood glucose): negligible
- Rectal bleeding: No bleeding (number of mice) ([2]; 2 u/kg insulin, PBS group 4): 8
- Rectal bleeding: Bleeding (number of mice) ([2]; 2 u/kg insulin, PBS group 9): 3
- weight increase in remission phase, day 8 to day 11 ([2]; 3% DSS, 2 and 6 u/kg rectal insulin (FIG. 7)): dose-dependent increase in weight
- effect on weight loss during induction of inflammation ([2]; 3% DSS, 2 u/kg rectal insulin): no effect
- weight loss less than in the PBS group ([2]; 3% DSS, 6 u/kg rectal insulin): 16%
- weight loss (weight at end of DSS treatment − weight at beginning) ([2]; 3% DSS, 6 u/kg rectal insulin, PBS group 4.3 g, p<0.05): 3.6 g
- Rectal bleeding: Bleeding (number of mice) [2, 4]: 3
- Rectal bleeding: No bleeding (number of mice) [2, 4]: 12
- concentration of insulin receptor mRNA (insulin receptor mRNA): increased almost two-fold
- Car3 mRNA expression in colon (Car3 mRNA; 2 u/kg rectal insulin): not
- Car3 mRNA expression in colon (Car3 mRNA; 6 u/kg rectal insulin): significantly increased
- COX2 mRNA expression in colon (COX2 mRNA; 2 u/kg rectal insulin): significantly reduce
- COX2 mRNA expression in colon (COX2 mRNA; 6 u/kg rectal insulin): significantly reduce
- Ki67 positive cells per crypt, staining pattern vs PBS (colonic epithelial cells; 2 u/kg rectal insulin): No significant difference
- Ki67 positive cells per crypt, staining pattern vs PBS (colonic epithelial cells; 6 units/kg rectal insulin): No significant difference
- weight loss from DSS start (day 1) to beginning of remission (day 8) ([3]; 2% DSS, 0.06 units human insulin in 600 μl PBS intra rectally daily, PBS group 2.56 g, t-test p<0.05): 1.68 g
- mice with tumours with a size greater than 2 mm ([3]; PBS group 1.3 >2 mm tumours per mouse, p<0.05): 0 mice
- mice showing signs of rectal bleeding during treatment ([3]; all PBS mice showed bleeding, p<0.05): two
- inflammation score by colonoscopy, late remission phase ([3]; blinded scoring of endoscopy videos, vs PBS): significant lower (and better) inflammation score; also recorded: improves inflammation score
- body weight course (FIG. 3) ([3]; daily rectal recombinant human insulin 2 units/kg): re-gained weight
